Results reported in US20240124389A1, “COMPOUND OR SALT THEREOF, LIPID PARTICLES, AND PHARMACEUTICAL COMPOSITION” (FUJIFILM Corporation, priority 2021, published 2024).

test system: EPO mRNA; test: mRNA encapsulation rate of EPO mRNA-encapsulating lipid particles; type: physicochemical; conditions: aminolipid 50 / DOPE 10 / cholesterol 38.5 / DMG-PEG2000 1.5 mol %, lipid/nucleic acid 64 wt/wt
In short: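 Lipid particles made by mixing lipids in ethanol (20 mmol/L total) with EPO mRNA in 50 mmol/L citrate pH 4 (lipid:mRNA weight ratio about 16:1–64:1), then dialysed against 10% sucrose. Total mRNA measured after ethanol precipitation; outer-phase mRNA by RiboGreen fluorescence (ex 485/em 535 nm). Encapsulation (%) = (total − outer)/total × 100.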

| SMILES | Nucleic acid encapsulation rate |
| --- | --- |
| CCCCCCC(CCCC)COC(=O)CCCC(CCCCCC)OC(=O)OCCN(CCOC(=O)OC(CCCCCC)CCCC(=O)OCC(CCCC)CCCCCC)CCN(CC)CC (centres unmarked) [Example 8, Bis(2-butyloctyl) 11-(2-(diethylamino)ethyl)-5,17-dihexyl-7,15-dioxo-6,8,14,16-tetraoxa-11-azahenicosanedioate] | 98.0% |
| CCCCCCC(CCCC(=O)OCC(CCCCC)CCCCC)OC(=O)OCCN(CCCN(CC)CC)CCOC(=O)OC(CCCCCC)CCCC(=O)OCC(CCCCC)CCCCC (centres unmarked) [Example 13, Bis(2-pentylheptyl) 11-(3-(diethylamino)propyl)-5,17-dihexyl-7,15-dioxo-6,8,14,16-tetraoxa-11-azahenicosanedio ate] | 98.5% |
| CCCCCC(CCCCC)COC(=O)CCCC(CCC)OC(=O)OCCN(CCOC(=O)OC(CCC)CCCC(=O)OCC(CCCCC)CCCCC)CCN(CC)CC (centres unmarked) [Example 21, Bis(2-pentylheptyl) 11-(2-(diethylamino)ethyl)-7,15-dioxo-5,17-dipropyl-6,8,14,16-tetraoxa-11-azahenicosanedioate] | 99.9% |
| CCCCCCCOC(=O)CCCC(CCCC(=O)OCCCCCCC)OC(=O)OCCN(CCOC(=O)OC(CCCC(=O)OCCCCCCC)CCCC(=O)OCCCCCCC)CCN(CC)CC [Example 29, diheptyl 11-(2-(diethylamino)ethyl)-5,17-bis(4-(heptyloxy)-4-oxobutyl)-7,15-dioxo-6,8,14,16-tetraoxa-11-azahenicosanedioate] | 97.1% |
| CCCCCCCOC(=O)CCCC(CCCC(=O)OCCCCCCC)OC(=O)OCCN(CCOC(=O)OC(CCCC(=O)OCCCCCC)CCCC(=O)OCCCCCC)CCN(CC)CC [Example 37, 1-Heptyl 21-hexyl 11-(2-(diethylamino)ethyl)-5-(4-(heptyloxy)-4-oxobutyl)-17-(4-(hexyloxy)-4-oxobutyl)-7,15-d ioxo-6,8,14,16-tetraoxa-11-azahenicosanedioate] | 99.0% |
